Measured values published in ChEMBL document CHEMBL1152492, “DNA-targeting pyrroloquinoline-linked butenone and chalcones: synthesis and biological evaluation” (Eur J Med Chem, 2009).
The source made the active and inactive calls. The calls are words filed in the database; no cut-off is given here.

Tests used:
[1] = tested on: Nucleic Acid; experiment: Binding affinity to salmon testes DNA assessed as occurrence of intercalative molecular complex by linear flow dichroism; format: nucleic-acid assay; conditions: Salmonidae
[2] = tested on: HeLa; experiment: Antiproliferative activity against human HeLa cells after 72 hrs by trypan blue assay; format: functional, cell-based
[3] = Antiproliferative activity against human JR8 cells after 72 hrs by trypan blue assay; format: functional, cell-based; conditions: JR8, 72 h
[4] = tested on: HL-60; experiment: Antiproliferative activity against human HL60 cells after 72 hrs by trypan blue assay; format: functional, cell-based; conditions: HL-60, 72 h
[5] = biological target: DNA topoisomerase 2-alpha (Homo sapiens) (UniProt P11388); experiment: Inhibition of human recombinant topoisomerase 2 catalytic activity at 20 uM by agarose gel electrophoresis
[6] = biological target: DNA topoisomerase 2-alpha (Homo sapiens) (UniProt P11388); experiment: Inhibition of human recombinant topoisomerase 2 assessed as induction of linear pBR322 DNA formation at 15 uM by agarose gel electrophoresis
[7] = biological target: DNA topoisomerase 2-alpha (Homo sapiens) (UniProt P11388); experiment: Inhibition of human recombinant topoisomerase 2-mediated relaxation of supercoiled pBR322 DNA after 60 mins by agarose gel electrophoresis
[8] = biological target: DNA topoisomerase 2-alpha (Homo sapiens) (UniProt P11388); experiment: Inhibition of human recombinant topoisomerase 2 assessed as induction of linear pBR322 DNA formation upto 20 uM by agarose gel electrophoresis
[9] = biological target: DNA topoisomerase 2-alpha (Homo sapiens) (UniProt P11388); experiment: Inhibition of human recombinant topoisomerase 2 assessed as induction of linear pBR322 DNA formation at 50 uM by agarose gel electrophoresis
[10] = biological target: DNA topoisomerase 2-alpha (Homo sapiens) (UniProt P11388); experiment: Inhibition of human recombinant topoisomerase 2-mediated relaxation of supercoiled pBR322 DNA at 10 uM after 60 mins by agarose gel electrophoresis

DNA topoisomerase 2-alpha (Homo sapiens), sequence (P11388 whole entry): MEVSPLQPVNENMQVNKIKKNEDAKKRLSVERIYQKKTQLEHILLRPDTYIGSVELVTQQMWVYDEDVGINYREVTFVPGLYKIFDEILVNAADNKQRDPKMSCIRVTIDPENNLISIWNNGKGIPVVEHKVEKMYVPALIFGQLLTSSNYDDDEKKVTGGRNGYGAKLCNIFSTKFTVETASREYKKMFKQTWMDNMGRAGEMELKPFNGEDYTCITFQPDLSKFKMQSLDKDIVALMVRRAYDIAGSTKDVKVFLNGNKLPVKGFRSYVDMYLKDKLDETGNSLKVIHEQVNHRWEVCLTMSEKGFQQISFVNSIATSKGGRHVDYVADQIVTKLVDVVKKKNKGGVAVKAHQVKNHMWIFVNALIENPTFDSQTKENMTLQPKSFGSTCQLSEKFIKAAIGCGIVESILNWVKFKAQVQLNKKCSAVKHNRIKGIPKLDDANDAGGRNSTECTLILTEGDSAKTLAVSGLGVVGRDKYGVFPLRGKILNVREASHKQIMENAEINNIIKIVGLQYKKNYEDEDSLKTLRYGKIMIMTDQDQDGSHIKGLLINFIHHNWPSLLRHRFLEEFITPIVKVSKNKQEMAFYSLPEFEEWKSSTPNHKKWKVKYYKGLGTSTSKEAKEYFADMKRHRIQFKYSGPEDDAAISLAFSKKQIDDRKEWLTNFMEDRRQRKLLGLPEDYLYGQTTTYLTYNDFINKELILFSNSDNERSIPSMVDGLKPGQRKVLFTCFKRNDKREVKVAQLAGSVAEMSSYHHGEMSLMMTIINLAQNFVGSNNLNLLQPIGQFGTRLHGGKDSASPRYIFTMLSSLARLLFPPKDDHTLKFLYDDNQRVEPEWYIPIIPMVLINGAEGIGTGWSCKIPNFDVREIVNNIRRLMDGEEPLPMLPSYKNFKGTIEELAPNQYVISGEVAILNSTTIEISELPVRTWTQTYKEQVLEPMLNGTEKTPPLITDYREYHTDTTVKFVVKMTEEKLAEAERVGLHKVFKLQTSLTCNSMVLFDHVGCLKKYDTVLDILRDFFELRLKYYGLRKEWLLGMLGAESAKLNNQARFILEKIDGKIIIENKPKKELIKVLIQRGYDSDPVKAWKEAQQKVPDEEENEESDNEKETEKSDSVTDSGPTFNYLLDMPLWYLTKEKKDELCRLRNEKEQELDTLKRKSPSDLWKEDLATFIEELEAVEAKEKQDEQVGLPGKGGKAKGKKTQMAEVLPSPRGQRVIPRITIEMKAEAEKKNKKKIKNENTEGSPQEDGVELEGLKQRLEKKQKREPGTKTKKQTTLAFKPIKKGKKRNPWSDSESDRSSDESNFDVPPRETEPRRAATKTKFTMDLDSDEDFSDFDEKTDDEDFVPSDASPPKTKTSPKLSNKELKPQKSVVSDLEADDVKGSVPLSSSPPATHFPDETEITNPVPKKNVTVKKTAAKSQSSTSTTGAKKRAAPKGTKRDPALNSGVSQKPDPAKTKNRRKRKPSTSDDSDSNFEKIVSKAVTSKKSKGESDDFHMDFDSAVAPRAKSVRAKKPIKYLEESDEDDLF

With `O=C(/C=C/c1ccc[nH]1)c1ccccc1` the Activity [1] was “inactive”, the IC50 [2] was greater than 20 µM and the IC50 [3] was greater than 20 µM. It also gave an IC50 [4] greater than 20 µM.

In the case of `Cc1c2ccncc2c(C)c2c1[nH]c1ccccc12` [ELLIPTECINE], the Activity [1] is reported as “Active” and the IC50 [3] is reported as 1.1 µM.

For `CC(=O)/C=C/c1ccccc1` [BUTENONE], the Activity [1] was “inactive”.

In the case of `O=C(/C=C/c1ccc([N+](=O)[O-])cc1)c1ccccc1`, the Activity [1] is reported as “inactive”, the IC50 [2] is reported as greater than 20 µM and the IC50 [3] is reported as 7.8 µM. The IC50 [4] was 6 µM and the Activity [5] was “inactive”.

With `COc1cc(NS(C)(=O)=O)ccc1Nc1c2ccccc2nc2ccccc12` the Activity [1] was “Active” and the Activity [6] was “Active”.

Molecule `O=C(/C=C/c1ccc[nH]1)c1ccc(Nc2ccnc3ccc4[nH]ccc4c23)cc1` has an IC50 [2] of 18.1 µM, an IC50 [3] of 3.3 µM and an IC50 [4] of 5.6 µM.

With `O=C(/C=C/c1cccs1)c1ccc(Nc2ccnc3ccc4[nH]ccc4c23)cc1` the IC50 [2] was 5.3 µM, the IC50 [3] was 2.1 µM and the IC50 [4] was 3.2 µM.

For `CC(=O)/C=C/c1ccc(Nc2ccnc3ccc4[nH]ccc4c23)cc1`, the Activity [7] was “Dose-dependent effect”, the Activity [8] was “inactive” and the Activity [1] was “Active”. For the same molecule, the Activity [9] was “inactive”, the IC50 [2] was 7 µM and the IC50 [3] was 1.6 µM. For the same molecule, the IC50 [4] was 2.3 µM and the Activity [5] was “inactive”.

For `O=C(/C=C/c1ccc([N+](=O)[O-])cc1)c1ccc(Nc2ccnc3ccc4[nH]ccc4c23)cc1`, the Activity [7] was “Dose-dependent effect”, the Activity [8] was “inactive” and the Activity [9] was “inactive”. For the same molecule, the IC50 [2] was 10.4 µM, the IC50 [3] was 1.2 µM and the Activity [10] was “Active”. The IC50 [4] was 4.4 µM and the Activity [5] was “Active”.
